Results: patent publication US8716478B2, “Boron-containing small molecules” (Anacor Pharmaceuticals, Inc., priority 2010, dated 2014)
Read-outs that look alike come from different tables or passages of the source.

Columns and labels:
[1] = test system: Schistosoma mansoni schistosomula; test: Schistosoma mansoni schistosomula phenotypic screen; conditions: for Schistosomula (juvenile infective form) worm screen phenotype, 24 h: Second Set, 5 uM; for phenotypes caused by positive control compounds in schistosomula: positive controls
Text: (§1) Puerto Rican isolates of S. mansoni using Biomphalaria glabrata snails and golden hamsters as intermediate and definitive hosts, respectively, were maintained and handled in the University of California-San Francisco Sandler Center for Tropical Medicine. Patent B. glabrata snails (6-8 weeks after exposure to 5-10 infectious miracidia) were induced to shed infective larvae (cercariae) under light stimulus into the surrounding water. Cercariae were washed in rounds of ice-cold water and concentrated through and over sieves of varying pore sizes. They were then mechanically sheared (separation of heads from tails) as described in Colley D G, et al. Exp Parasitol 1974, 35:44-51, in ice-cold Incomplete Medium 169 (as described in Basch P F. J Parasitol 1981, 67:179-185, minus FBS and antibiotics) by passing 15 times through a double headed 22-gauge syringe needle connected to two 10 mL syringes. The resulting cercarial heads (schistosomula) were separated from their tails by swirling in a petri dish. Concentrated schistosomula were added to a sterile 1.5 mL centrifuge tube and allowed to settle over ice. Schistosomula were transferred to a sterile environment and washed 4 times in Incomplete Medium 169 prior to plating.
(§2) Two sets of screening were performed. In the first set, compounds were screened against schistosomula and observations were made at 24 hours, 2 days, 3 days, 4 days, and 6 days. In the second set, compounds were screened against schistosomula with observations at 24 hours, 2 days, 3 days, and 4 days and adult worms at 7 hours, 24 hours, 4 days, and 6 days.
Plates contain 200 schistosomula/well in […] complete Basch medium and were maintained at 37° C. in a 5% CO2 atmosphere. All compounds were tested in duplicate with at least two experimental replicates. Compounds and control compounds were added to the plates using the Biomek FXp using 96-well disposable tips. Final concentration of DMSO in each well was 0.5%.
(§3) A semi-quantitative and controlled nomenclature for phenotypes that can arise as a result of compound insult to both schistosomula and adults was utilized (Abdulla M H, et al., PLoS Negl Trop Dis 2009, 3:e478). Phenotypes were recorded by visual inspection and on a flexible time basis but at least at 24 h and 4 day time-points in the case of large scale screening. […] To help eliminate bias, two screen analysts scored phenotypes ‘blind’ both to knowledge of the contents of each screening plate and the phenotypes scored by his/her colleague. Upon completing their individual assessments, each analyst's ‘hit sheet’ was then compared to derive a ‘consensus hit sheet’. Discrepancies in analysts' hit sheets were re-evaluated under the microscope to eventually make a consensus hit call.
(§4) Hyper-coiled and coiled represent a verbal description of the visual phenotype as compared to the DMSO control. The + and ++ and +++ means more of the phenotype which preceded it. The − means less of the phenotype which preceded it. Results

[2] = test system: Schistosoma mansoni adult worms; test: Schistosoma mansoni adult worm phenotypic screen; conditions: for phenotypes caused by positive control compounds in adult worms: positive controls
Text: as §1, §2
Given the delicacy and size (0.5-1.5 cm in length) of this stage all operations were performed manually by the Sandler Center. 24-well plates were set up with compound (final DMSO concentration=0.5%) containing approximately 5 pairs of worms (S. mansoni has separate sexes) in 2 mL complete Basch medium per well. Plates were maintained at 37° C. in a 5% CO2 atmosphere. All compounds were tested in duplicate with at least two experimental replicates.
as §3, §4

[3] = test system: Brugia malayi; test: Brugia malayi in vitro assay, adult female worms; conditions: 50 uM; trial two
Description: Adult female worms are shipped from TRS Labs Inc. (Nonglak Supakorndej, Lab Director, 295 Research Dr., Athens, Ga. 30605; 706-549-0764) via Fed Ex. Individual worms are shipped in 2 mls vials with RPMI on Mondays and arrive at the […] Center lab on Tuesday mornings. Individual worms are poured into each well (24-well tissue culture plates) to avoid handling worms since they are very delicate and easily broken. Transport media is removed and replaced with 0.5 mls of RPMI-1640 (25 mM HEPES, 2 g/L NaHCO3, Antibiotic/Antimycotic, 5% HI FBS). Worms are maintained in a 37° C. 5% CO2 incubator. Compounds are added directly to each duplicate well (5 ul of 5 mM for a final concentration of 50 uM). DMSO (5 ul) is used as a negative control and Ivermectin (Sigma) is used as a positive control at 100 uM/well and 20 uM/well. Adult filarial nematodes can shed/give birth to microfilarial worms (mf) during the course of the assay. Wells were reviewed for the presence of mf, and the viability of mf, by visual observation of the well on the last day of observation (Day 7). Plates are examined once a day for 4-7 days. […] If changes are observed, worms are more closely examined under a dissecting microscope.

[4] = test system: TNF-α; test: In vivo TNF-α release in LPS treated mice; set-up: species or system Swiss Webster mice
Description: In vivo TNF-α release was measured in Swiss Webster mice, 10/group. Animals were dosed via oral gavage with drug 1% CMC suspension. Thirty minutes later LPS, 1.5 mg/kg was administered by intraperitoneal injection. Ninety minutes later animals were sacrificed, blood was collected by exsangination and serum prepared for analysis. TNF-α concentration was assessed by ELISA, non-drug treated animals had TNF-α levels 1000-3000 pg/mL. 6-(1-Hydroxy-1,3-dihydrobenzo[c][1,2]oxaborol-5-yloxy)-2-(2-isopropoxyethoxy)nicotinonitrile (D140) and 6-(1-hydroxy-1,3-dihydrobenzo[c][1,2]oxaborol-5-yloxy)-2-(4-oxopentyloxy)nicotinonitrile (D141) are disclosed in U.S. patent application Ser. No. 12/399,015, filed Mar. 5, 2009.

[5] = test system: human PDE4 enzyme; test: Phosphodiesterase 4 (PDE4) inhibition, semi-purified enzyme from human U937 cells; format: biochemical
[6] = test system: TNF-α in peripheral blood mononuclear cells (PBMCs); test: TNF-α inhibition in LPS-stimulated peripheral blood mononuclear cells; format: cell-based; conditions: PBMC
Description: Peripheral blood mononuclear cells (PBMCs) pooled from 10-20 donors were obtained from a local blood bank, ficoll gradient purified, and stored frozen in liquid nitrogen. Cells were thawed and seeded into 96-well plates at 5×10^5 cells/well in RPMI 1640 with 10% heat-inactivated fetal calf serum (MediaTech, Inc, Hearndon, Va., USA), Test articles were evaluated at the indicated concentrations in 150 μL media containing <2% DMSO, final, with stimulant and PBMCs. Cells were stimulated with lipopolysaccharide (LPS, phenol-extract from E. coli, Sigma-Aldrich, St. Louis, Mo.) at 1 μg/mL. Stimulation was with LPS for 24 h to measure TNF-α. Cytokines in supernatants were analyzed with a FACSArray flow cytometer (BD Biosciences, San Jose, Calif., USA) using the BD Cytometric Bead Array (CBA) Flex Set (BD Biosciences). IC50 values were calculated using the four parameter logistic equation.

[7] = Pharmacokinetics and oral bioavailability after IV and PO dosing; format: in vivo, female CD-1 mice; conditions: plasma; for bioavailability / AUC: female, CD-1, mouse; for bioavailability: po; for AUC: 10 mg/kg oral suspension dose; for clearance: mouse, 5 mg/kg, female CD-1 mice, intravenous
Description: The objective of this study was to evaluate the pharmacokinetics and oral bioavailability of PDE4 inhibitors following intravenous (IV) administration and oral (PO) doses in female CD-1 mice.
After dosing, blood samples were collected through 24 h, twice from each animal at specific times (3 mice/time point), into microcentrifuge tubes containing K2EDTA (anticoagulant), stored on wet ice and processed for plasma. The plasma samples were analyzed for concentrations of parent compound by LC/MS/MS using an internal standard/peak area method. Pharmacokinetic analysis of the mean plasma concentration-time profiles following IV and PO administration was performed.
[…] Dosing solutions for intravenous administration were prepared in 55% PEG300/25% PG/20% water. Oral dosing used a suspension prepared in 1% CMC in water with 0.1% Tween 80.
After dosing, blood samples were collected through 24 h, twice from each animal via retro-orbital bleed (˜0.1 mL, 1st time point) or cardiac puncture (˜0.6 mL, 2nd time point) at specific times (3 mice/time point), into microcentrifuge tubes containing K2EDTA (anticoagulant) and stored on wet ice prior to processing.
Plasma was prepared by centrifugation of blood samples for 6 min at approximately 2000×g or 6000 rpm at 4° C. All processed plasma samples (˜50 μL and 300 μL) were transferred to analysis tubes, placed on dry ice immediately and later stored at −80° C. until analysis for concentrations of experimental compound by LC/MS/MS.
Mouse IV clearance, Mouse Oral AUC and Oral Bioavailability are provided below. 6-(1-Hydroxy-1,3-dihydrobenzo[c][1,2]oxaborol-5-yloxy)-2-(2-isopropoxyethoxy)nicotinonitrile (D140) and 6-(1-hydroxy-1,3-dihydrobenzo[c][1,2]oxaborol-5-yloxy)-2-(4-oxopentyloxy)nicotinonitrile (D141) are disclosed in U.S. patent application Ser. No. 12/399,015, filed Mar. 5, 2009.

[8] = under similar conditions, read-out: PDE4 IC50 value
[9] = under similar conditions, read-out: TNF-α IC50 value

Structure (SMILES) | Adult worm screen phenotype, 7 h ([2]; 5 uM) | % Inhibition of TNFa Blood Levels in LPS Treated Mice ([4]; Oral Dose 3 mg/kg) [%] | % Inhibition of TNFa Blood Levels in LPS Treated Mice ([4]; Oral Dose 10 mg/kg) [%] | bioavailability [7] [%] | AUC [7] [µg·h/mL] | clearance [7] [L/h/kg] | phenotypes caused by positive control compounds in schistosomula [1] | phenotypes caused by positive control compounds in adult worms [2] | other results
N#Cc1ccc(Oc2ccc3c(c2)COB3O)nc1OC1CCCC1 [2-Cyclopentyloxy-6-(1-hydroxy-1,3-dihydro-benzo[c][1,2]oxaborol-5-yloxy)-nicotinonitrile] | O+ |  |  |  |  |  |  |  | Schistosomula (juvenile infective form) worm screen phenotype, 24 h ([1]; 24 h): R, O+; Adult worm screen phenotype, 24 h ([2]; 5 uM, 24 h): O−
CC(C)OCCOc1nc(Oc2ccc3c(c2)COB3O)ccc1C#N [6-(1-hydroxy-1,3-dihydrobenzo[c][1,2]oxaborol-5-yloxy)-2-(4-isopropoxy-ethoxy)nicotinonitrile] |  |  |  |  |  |  |  |  | worm activity score / phenotype, Day 3 [3]: 4 (highly active (controls))
N#Cc1ccc(Oc2ccc3c(c2)COB3O)nc1 [6-(1-hydroxy-1,3-dihydrobenzo[c][1,2]oxaborol-5-yloxy)nicotinonitrile] | O− |  |  |  |  |  |  |  | Schistosomula (juvenile infective form) worm screen phenotype, 24 h ([1]; 24 h): R−, O,
COc1nc(Oc2cc3c(cc2F)B(O)OC3)ccc1C#N [6-(6-Fluoro-1-hydroxy-1,3-dihydrobenzo[c][1,2]oxaborol-5-yloxy)-2-methoxynicotinonitrile] | O++ |  |  |  |  |  |  |  | schistosomula phenotype, 24 h ([1]; First Set, 24 h): O+
CC(C)OCCOc1nc(Oc2ccc3c(c2)COB3O)ccc1C#N [Compound D140, 6-(1-Hydroxy-1,3-dihydrobenzo[c][1,2]oxaborol-5-yloxy)-2-(2-isopropoxyethoxy)nicotinonitrile] | O++ | 59.35 | 74 | 24 | 0.81 | 3.4 |  |  | % Inhibition of TNFa Blood Levels in LPS Treated Mice ([4]; Oral Dose 0.3 mg/kg): 26.4%; % Inhibition of TNFa Blood Levels in LPS Treated Mice ([4]; Oral Dose 0.5 mg/kg): 30%; % Inhibition of TNFa Blood Levels in LPS Treated Mice ([4]; Oral Dose 1 mg/kg): 50.2%; % Inhibition of TNFa Blood Levels in LPS Treated Mice ([4]; Oral Dose 5 mg/kg): 72%; % Inhibition of TNFa Blood Levels in LPS Treated Mice ([4]; Oral Dose 30 mg/kg): 83.5%; IC50 [5, 8]: 9 nM; IC50 [6, 9]: 3.6 nM
CC(=O)CCCOc1nc(Oc2ccc3c(c2)COB3O)ccc1C#N [Compound D141, 6-(1-hydroxy-1,3-dihydrobenzo[c][1,2]oxaborol-5-yloxy)-2-(4-oxopentyloxy)nicotinonitrile, reference compound] |  | 36.1 | 52.4 | 32 | 1.3 | 2.6 |  |  | % Inhibition of TNFa Blood Levels in LPS Treated Mice ([4]; Oral Dose 30 mg/kg): 67.1%; IC50 [5, 8]: 3.1 nM; IC50 [6, 9]: 1.2 nM
CC(C)OCCOc1nc(Oc2ccc3c(c2)COB3O)c(Cl)cc1C#N [Compound D230, 5-chloro-6-(1-hydroxy-1,3-dihydrobenzo[c][1,2]oxaborol-5-yloxy)-2-(2-isopropoxyethoxy)nicotinonitrile] |  | 80 | 77 | 60 | 3 | 2.2 |  |  | % Inhibition of TNFa Blood Levels in LPS Treated Mice ([4]; Oral Dose 0.1 mg/kg): 39%; % Inhibition of TNFa Blood Levels in LPS Treated Mice ([4]; Oral Dose 0.3 mg/kg): 59%; % Inhibition of TNFa Blood Levels in LPS Treated Mice ([4]; Oral Dose 0.5 mg/kg): 55%; % Inhibition of TNFa Blood Levels in LPS Treated Mice ([4]; Oral Dose 1 mg/kg): 76%; % Inhibition of TNFa Blood Levels in LPS Treated Mice ([4]; Oral Dose 5 mg/kg): 77%; IC50 ([5]; 1 μM cAMP, 20 minutes at 25° C., read-out: PDE4 IC50): 5.2 nM; IC50 ([6]; PBMCs, LPS 1 μg/mL for 24 h, read-out: Proinflammatory TNF-α IC50): 2.5 nM
O=C(C1CCCCC1)N1CC(=O)N2CCc3ccccc3C2C1 (centres unmarked) [PZQ, reference compound] |  |  |  |  |  |  | dose-dependent, rapid and severe phenotypes | dose-dependent, rapid and severe phenotypes | 
O=C(Nc1ccc([N+](=O)[O-])cc1Cl)c1cc(Cl)ccc1O [niclosamide, reference compound] |  |  |  |  |  |  | dose-dependent, rapid and severe phenotypes | dose-dependent, rapid and severe phenotypes | 
O=C(Nc1ccc(Oc2ccc(Cl)cc2)c(Cl)c1)c1cc(I)cc(I)c1O [rafoxanide, reference compound] |  |  |  |  |  |  | dose-dependent, rapid and severe phenotypes | dose-dependent, rapid and severe phenotypes | 
